Blank lines part the entries; values can stand above or below the compound they belong to.
Molecular target: NAMPT enzyme (Homo sapiens (Human), UniProt P43490)
Assay: Enzyme Assay and NMN Detection (NAMPT reaction, fluorescence detection of NMN)
Type: biochemical
Conditions: NAMPT activation, NMN formation
Method in brief: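 Reaction in 50 mM HEPES pH 7.5, 5 mM MgCl2, 0.1% Prionex, 0.005% Tween 20, 1 mM TCEP at room temperature, with 16 nM NAMPT, 120 uM ATP, 5 uM nicotinamide, 6.25 uM PRPP, 0.04 U/ml pyrophosphatase for 2 h. Stopped with acetophenone/KOH then formic acid; NMN quantified by fluorescence (ex380/em460) against calibration curve.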

NAMPT enzyme, sequence (P43490 whole entry, species assumed): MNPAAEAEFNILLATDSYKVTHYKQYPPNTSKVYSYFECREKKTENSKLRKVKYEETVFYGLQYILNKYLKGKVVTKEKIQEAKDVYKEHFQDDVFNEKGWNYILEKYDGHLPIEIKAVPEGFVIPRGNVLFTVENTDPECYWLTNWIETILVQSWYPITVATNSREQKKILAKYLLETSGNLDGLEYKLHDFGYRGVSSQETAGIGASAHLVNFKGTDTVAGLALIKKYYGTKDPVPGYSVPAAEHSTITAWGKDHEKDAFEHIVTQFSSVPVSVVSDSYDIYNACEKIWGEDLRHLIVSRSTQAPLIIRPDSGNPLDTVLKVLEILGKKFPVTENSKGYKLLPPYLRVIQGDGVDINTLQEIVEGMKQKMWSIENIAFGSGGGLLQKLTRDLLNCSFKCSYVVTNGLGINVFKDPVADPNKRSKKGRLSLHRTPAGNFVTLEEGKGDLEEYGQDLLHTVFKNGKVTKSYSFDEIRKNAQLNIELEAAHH

- EC50 (Table B-6): < 100 nM
SMILES: O=C(NCc1ccncc1)Nc1ccc(S(=O)(=O)c2ccccc2-c2cccc(F)c2)cc1 [1-[4-(3′-Fluoro-biphenyl-2-sulfonyl)-phenyl]-3-pyridin-4-ylmethyl-urea]

- EC50 (Table B-4): 2000 to 5000 nM
SMILES: COc1cccc(-c2ccccc2S(=O)(=O)c2ccc(NC(=O)NCc3cn[nH]c3)cc2)c1 [1-[4-(3′-Methoxy-biphenyl-2-sulfonyl)-phenyl]-3-(1H-pyrazol-4-ylmethyl)-urea]

- EC50 (Table B-6): 100 to 2000 nM
SMILES: COc1cccc(-c2ccccc2S(=O)(=O)c2ccc(NC(=O)NCc3ccncc3)cc2)c1 [1-[4-(3′-Methoxy-biphenyl-2-sulfonyl)-phenyl]-3-pyridin-4-ylmethyl-urea]

- EC50 (Table B-4): 100 to 2000 nM
SMILES: Cc1cccc(-c2ccccc2S(=O)(=O)c2ccc(NC(=O)NCc3cn[nH]c3)cc2)c1 [1-[4-(3′-Methyl-biphenyl-2-sulfonyl)-phenyl]-3-(1H-pyrazol-4-ylmethyl)-urea]

- EC50 (Table B-6): 100 to 2000 nM
SMILES: Cc1cccc(-c2ccccc2S(=O)(=O)c2ccc(NC(=O)NCc3ccncc3)cc2)c1 [1-[4-(3′-Methyl-biphenyl-2-sulfonyl)-phenyl]-3-pyridin-4-ylmethyl-urea]

- EC50 (Table B-1): < 100 nM
SMILES: O=C(NCc1cn[nH]c1)Nc1ccc(S(=O)(=O)c2ccc(Cl)cc2)cc1 [1-[4-(4-Chloro-benzenesulfonyl)-phenyl]-3-(1H-pyrazol-4-ylmethyl)-urea]

- EC50 (Table B-2): 100 to 2000 nM
SMILES: O=C(NCc1ccncc1)Nc1ccc(S(=O)(=O)c2ccc(Cl)cc2)cc1 [1-[4-(4-Chloro-benzenesulfonyl)-phenyl]-3-pyridin-4-ylmethyl-urea]

Second part, the compound before the results:

SMILES: O=C(NCc1cnco1)Nc1ccc(S(=O)(=O)c2cc(F)cc(F)c2)cc1 [1-[4-(3,5-Difluoro-benzenesulfonyl)-phenyl]-3-oxazol-5-ylmethyl-urea]
- EC50 (Table B-5): 100 to 2000 nM

SMILES: O=C(NCc1ccncc1)Nc1ccc(S(=O)(=O)c2cc(F)cc(F)c2)cc1 [1-[4-(3,5-Difluoro-benzenesulfonyl)-phenyl]-3-pyridin-4-ylmethyl-urea]
- EC50 (Table B-6): 100 to 2000 nM

SMILES: O=C(NCc1cn[nH]c1)Nc1ccc(S(=O)(=O)c2cccc(Cl)c2)cc1 [1-[4-(3-Chloro-benzenesulfonyl)-phenyl]-3-(1H-pyrazol-4-ylmethyl)-urea]
- EC50 (Table B-1): < 100 nM

SMILES: O=C(NCc1cn[nH]c1)Nc1ccc(S(=O)(=O)c2cccc(I)c2)cc1 [1-[4-(3-Iodo-benzenesulfonyl)-phenyl]-3-(1H-pyrazol-4-ylmethyl)-urea]
- EC50 (Table B-4): < 100 nM

SMILES: O=C(NCc1ccncc1)Nc1ccc(S(=O)(=O)c2cccc(I)c2)cc1 [1-[4-(3-Iodo-benzenesulfonyl)-phenyl]-3-pyridin-4-ylmethyl-urea]
- EC50 (Table B-6): < 100 nM

SMILES: COc1cccc(S(=O)(=O)c2ccc(NC(=O)NCc3cn[nH]c3)cc2)c1 [1-[4-(3-Methoxy-benzenesulfonyl)-phenyl]-3-(1H-pyrazol-4-ylmethyl)-urea]
- EC50 (Table B-1): < 100 nM

SMILES: COc1cccc(S(=O)(=O)c2ccc(NC(=O)NCc3ccncc3)cc2)c1 [1-[4-(3-Methoxy-benzenesulfonyl)-phenyl]-3-pyridin-4-ylmethyl-urea]
- EC50 (Table B-2): < 100 nM

SMILES: CC1Cc2ccccc2CN1S(=O)(=O)c1ccc(NC(=O)NCc2ccncc2)cc1 (stereo not shown) [1-[4-(3-Methyl-3,4-dihydro-1H-isoquinoline-2-sulfonyl)-phenyl]-3-pyridin-4-ylmethyl-urea]
- EC50 (Table B-2): 100 to 2000 nM

SMILES: COc1cccc(S(=O)(=O)c2ccc(NC(=O)NCc3cnco3)cc2)c1 [1-[4-(3-methoxy-benzenesulfonyl)-phenyl]-3-oxazol-5-ylmethyl-urea]
- EC50 (Table B-5): 100 to 2000 nM

SMILES: O=C(NCc1cn[nH]c1)Nc1ccc(S(=O)(=O)c2ccccc2-c2cccc(Cl)c2)cc1 [1-[4-(3′-Chloro-biphenyl-2-sulfonyl)-phenyl]-3-(1H-pyrazol-4-ylmethyl)-urea]
- EC50 (Table B-4): 100 to 2000 nM

SMILES: O=C(NCc1ccncc1)Nc1ccc(S(=O)(=O)c2ccccc2-c2cccc(Cl)c2)cc1 [1-[4-(3′-Chloro-biphenyl-2-sulfonyl)-phenyl]-3-pyridin-4-ylmethyl-urea]
- EC50 (Table B-6): 100 to 2000 nM

SMILES: O=C(NCc1cn[nH]c1)Nc1ccc(S(=O)(=O)c2ccccc2-c2cccc(F)c2)cc1 [1-[4-(3′-Fluoro-biphenyl-2-sulfonyl)-phenyl]-3-(1H-pyrazol-4-ylmethyl)-urea]
- EC50 (Table B-4): < 100 nM

From patent publication US11452717B2, “Small molecule activators of nicotinamide phosphoribosyltransferase (NAMPT) and uses thereof” (Sanford Burnham Prebys Medical Discovery Institute, priority 2017, dated 2022)
